# Measurements published in patent publication US20130202646A1, “COMPOSITIONS AND METHODS FOR MODULATING AUTOPHAGY” (SAN DIEGO STATE UNIVERSITY (SDSU) FOUNDATION, priority 2010, published 2013).
# Experiments:
# HL-1 cells [1] = experiment: Autophagy scored by intracellular distribution of GFP-LC3 (fluorescence microscopy) in HL-1 cells; type: cell-based, murine; settings: for effect on upregulation/induction of autophagy by CCPA: inhibitor pretreatment, then CCPA, normoxic, before ischemia
# HL-1 cells [2] = experiment: Cell death by LDH release after simulated ischemia/reperfusion (sI/R) in HL-1 cells; type: cell-based, murine; settings: for effect on cytoprotection by CCPA (LDH release): inhibitor plus CCPA, then sI/R (2 hr sI, 3 hr R)
# Protocol: Cells of the murine atrial-derived cardiac cell line HL-1^16 were plated in gelatin/fibronectin-coated culture vessels and maintained in Claycomb medium^16 (JRH Biosciences, Lenexa, Kans.) supplemented with 10% fetal bovine serum, 0.1 mm norepinephrine, 2 mm […], 100 U·mL^-1 penicillin, 100 U·mL^-1 streptomycin, and 0.25 μg·mL^-1 amphotericin B. Cells were plated in 14-mm diameter glass bottom microwell dishes (MatTek), and ischemia was introduced by a buffer exchange to ischemia-mimetic solution (in mM: 20deoxyglucose, 125 NaCl, 8 KCl, 1.2 KH2PO4, 1.25 MgSO4, 1.2 CaCl2, 6.25 NaHCO2, 5 sodium lactate, 20 HEPES, pH 6.6) and placing the dishes in hypoxic pouches (GasPakTM EZ, BD Biosciences) equilibrated with 95% N2, 5% CO2. After 2 hr of simulated ischemia, reperfusion was initiated by a buffer exchange to normoxic MKH buffer and incubation at 95% room air, 5% CO2. Controls incubated in normoxic MKH buffer were run in parallel for each condition for periods of time that corresponded with those of the experimental groups. […] The cell cultures were washed with PBS prior to the experimental treatment. Protein content and LDH activity were determined according to El-Ani et al.^20. Briefly, 25 μl supernatants from 35 mm dishes were transferred into wells of a 96-well plate, and the LDH activities were determined with an LDH-L kit (Sigma), according to the manufacturer. The product of the enzyme was measured spectrophotometrically at 30° C. at a wavelength of 340 nm as described previously^21. The results were expressed relative to the control (X-fold) in the same experiment. Each experiment was done in triplicate and was repeated at least three times.
# [3] = test system: isolated perfused rat hearts; experiment: Autophagy in isolated perfused rat hearts (LC3-II/LC3-I Western blot, cadaverine dye binding)
# adult rat cardiomyocytes [4] = experiment: Autophagy (GFP-LC3 puncta) in adult rat cardiomyocytes; type: cell-based
# [5] = test system: isolated perfused rat hearts; experiment: Langendorff global ischemia/reperfusion injury in isolated perfused rat hearts (CK release, TTC infarct size, hemodynamics)
# [6] = test system: mCherry-LC3 transgenic mice; experiment: Induction of autophagy in vivo in hearts of mCherry-LC3 transgenic mice
# adult rat cardiomyocytes [7] = settings: CCPA 10 min before simulated ischemia (FIG. 7B)
# HL-1 cells [8] = experiment: Cell death by propidium iodide uptake after sI/R in HL-1 cells; type: cell-based, murine; settings: 100 nM CCPA 10 min before sI/R; end of reperfusion
# Protocol: Cells were plated in 14-mm diameter glass bottom microwell dishes (MatTek), and ischemia was introduced by a buffer exchange to ischemia-mimetic solution (in mM: 20deoxyglucose, 125 NaCl, 8 KCl, 1.2 KH2PO4, 1.25 MgSO4, 1.2 CaCl2, 6.25 NaHCO2, 5 sodium lactate, 20 HEPES, pH 6.6) and placing the dishes in hypoxic pouches (GasPakTM EZ, BD Biosciences) equilibrated with 95% N2, 5% CO2. After 2 hr of simulated ischemia, reperfusion was initiated by a buffer exchange to normoxic MKH buffer and incubation at 95% room air, 5% CO2. Controls incubated in normoxic MKH buffer were run in parallel for each condition for periods of time that corresponded with those of the experimental groups. Cells were stained immediately after sI/R with propidium iodide (5 μg/ml), which stains nuclei of cells whose plasma membranes have become permeable because of cell damage. The assay was performed according to […] et al.^22. For counterstaining we used Hoechst 33342 (10 μM), which stains the nuclei of all cells.
# [9] = test system: neonatal rat cardiomyocytes; experiment: Autophagosomes (GFP-LC3) in neonatal rat cardiomyocytes; settings: 100 nM CCPA, 10 min
# PKC epsilon = PKC epsilon translocation in perfused rat heart; type: cell-based; settings: after SUL administration
# Protocol: Subcellular fractionation. Frozen heart samples were thawed on ice in homogenization buffer containing (in mmol/L): Tris-HCL 20, EDTA 2, EGTA 10, PMSF 1, leupeptin 0.1, E-64 0.01, and sucrose 250). The tissue was then minced and Plytron homogenized (Kinematica, Basel, Switzerland) on ice for 15s for three passes. The homogenates were centrifuged at 600 g for 5 min at 4° C, and the crude supernatants were further centrifuged at 10,000 g for 10 min 4° C. The supernatant, designated as crude cytosol, was divided and one fraction was further centrifuged at 100,000 g for 1 h at 4° C. The resulting supernatant was designated as cytosolic fraction. The pellet was resuspended in homogenization buffer with 1% TritonX-100, incubated on ice for 1 h, then centrifuged at 100,000 g for 1 h at 4° C. The resulting supernatant was designated as the particulate fraction. Samples were stored at −80° C. until use. Western blot analysis. Proteins prepared from rat hearts were quantified by Bio-Rad protein assay. For immunodetection, 50 μg of crude cytosol prepared as above were resolved on SDS-PAGE 10% denaturing gels and transferred to PVDF nylon membranes. The membranes were blocked with 5% nonfat dry milk in TNT buffer (in mM: NaCl 100, Tris·HCl 10 (pH 7.4), and 0.1% Tween-20) for 1 h. […] To quantify the protein, intensity of bands was assessed with Scion Image Software.
# PKC δ = experiment: PKC delta translocation/redistribution in perfused rat heart and adult rat cardiomyocytes; type: cell-based
smiles,measurement,setting,value
CC(=O)OCOC(=O)CN(CC(=O)OCOC(C)=O)c1ccccc1OCCOc1ccccc1N(CC(=O)OCOC(C)=O)CC(=O)OCOC(C)=O [BAPTA-AM],effect on upregulation/induction of autophagy by CCPA,HL-1 cells [1],suprressed the induction of autophagy by CCPA
COc1ccc2c(c1)CC[C@@H]1[C@@H]2CC[C@]2(C)[C@@H](NCCCCCCN3C(=O)C=CC3=O)CC[C@@H]12 [U73122],effect on cytoprotection by CCPA (LDH release),HL-1 cells [2],an increase in LDH release
same,autophagy after sI/R (repair autophagy),"HL-1 cells [1]; inhibitor 15 min, then CCPA 10 min, then sI/R",an increase in autophagy after sI/R
same,effect on upregulation/induction of autophagy by CCPA,HL-1 cells [1],PLC is required for CCPA stimulation of autophagy before ischemia
COc1ccc2c(c[n+](C)c3c4cc5c(cc4ccc23)OCO5)c1OC [chelerythrine],effect on autophagy induced by SUL (cadaverine dye binding),[3]; chelerythrine with SUL,suppressed autophagy induced by SUL
same,effect on SUL-induced increase in cells with numerous autophagosomes,adult rat cardiomyocytes [4]; chelerythrine 5 μM 10 min before 10 μM SUL,suppressed
same,infarct size with or without SUL,[5]; chelerythrine 15 min before ischemia,no difference in infarct size whether SUL is present or absent
"OC[C@H]1O[C@@H](n2cnc3c(NC4CCCC4)nc(Cl)nc32)[C@H](O)[C@@H]1O [CCPA, 2-chloro-N(6)-cyclopentyladenosine]",LDH release,"HL-1 cells [2]; 100 nM CCPA 10 min before sI/R, end of simulated ischemia",diminished LDH release
same,number of mCherry-LC3-labeled structures in left ventricle cryosections,"[6]; CCPA 1 mg/kg i.p., 30 min",a large increase in the number of mCherry-LC3-labeled structures
same,cytoprotection (LDH release at end of simulated ischemia),adult rat cardiomyocytes [7],conferred cytoprotection
same,autophagy (percentage of cells with numerous puncta),adult rat cardiomyocytes [4]; CCPA 10 min (FIG. 7A),induced autophagy
same,uptake of propidium iodide,HL-1 cells [8],diminished
same,percentage of cells with numerous autophagosomes (autophagic flux),"HL-1 cells [1]; 100 nM 10 min, full medium, with or without Bafilomycin A1 (FIG. 2)",increased the percentage of cells with numerous autophagosomes under both steady-state and cumulative conditions
same,autophagosomes after sI/R,"HL-1 cells [1]; 100 nM 10 min, then 2 hr sI, 3 hr R",Fewer autophagosomes
same,extent of autophagy induced by starvation,"HL-1 cells [1]; 100 nM 10 min, then starvation in MKH 3 hr",no effect
same,autophagy in delayed preconditioning,"HL-1 cells [1]; 24 hr after 10 min CCPA and washout, normoxia",upregulated
same,repair autophagy at reperfusion in delayed preconditioning,"HL-1 cells [1]; 24 hr after 10 min CCPA, then sI/R",less
same,persistence of the increase in autophagosomes,HL-1 cells [1]; CCPA 100 nM,at least 300 min
same,time to increase in the number of autophagosomes,HL-1 cells [1]; CCPA 100 nM,≤ 10 min
same,induction of autophagy,"HL-1 cells [1]; full medium, 0.001-10 μM, 120 min (FIG. 1A)",induced autophagy in a dose-dependent fashion
same,number of autophagosomes,[9],an increase in the number of autophagosomes
CCCn1c(=O)c2[nH]c(C3CCCC3)nc2n(CCC)c1=O [DPCPX],effect on cytoprotection by CCPA (LDH release),HL-1 cells [2],Cytoprotection was abolished
same,effect on cytoprotection by CCPA in the second window of protection (LDH release),"HL-1 cells [2]; with CCPA 10 min, washout, sI/R 20-24 hr later",abolished the cytoprotection by CCPA
same,effect on upregulation/induction of autophagy by CCPA,HL-1 cells [1],partially blocked
same,effect on autophagy in the second window of protection,"HL-1 cells [1]; with CCPA 10 min, washout, 20-24 hr later",blocked the effects of CCPA on autophagy
C/C=C(/C)C(=O)O[C@H]1C(C)=C2[C@H]([C@@H]1OC(=O)CCCCCCC)[C@@](C)(OC(C)=O)C[C@H](OC(=O)CCC)[C@@]1(O)[C@H]2OC(=O)[C@@]1(C)O [thapsigargin],effect on upregulation/induction of autophagy by CCPA,HL-1 cells [1],suprressed the induction of autophagy by CCPA
"Nc1ccc(S(=O)(=O)Nc2ccnn2-c2ccccc2)cc1 [SUL, sulfaphenazole]",PKC epsilon translocation,PKC epsilon,did not show a consistent pattern of translocation
same,BODIPY-TR-cadaverine incorporation into autophagosomes,[3]; SUL administration (FIG. 15B),increased
same,ratio of LC3-II/I,[3]; SUL perfusion 30 min,doubling
same,number of autophagosomes in hearts,[6]; SUL 10 mg/kg i.p.,significant increase in the number of autophagosomes
same,percentage of cells with numerous autophagosomes,"adult rat cardiomyocytes [4]; 10 μM SUL, 30 min",significantly increased
same,PKC delta translocation (cytosol to particulate fraction),"PKC δ; Langendorff-perfused heart, 30 min after SUL infusion",translocation of PKC delta to the particulate fraction
same,distribution of PKC delta (immunostaining),"PKC δ; adult rat cardiomyocytes, SUL 15 min",much more closely aligned with alpha-actinin
same,contractility before ischemia,[5]; 10 μM SUL,no effect
same,infarct size (TTC),"[5]; 10 μM SUL from 10 min before ischemia, 30 min ischemia, 120 min reperfusion",reduced infarct size
same,recovery of contractile function after I/R,"[5]; 10 μM SUL, pre-ischemic administration",about 90 % of pre-ischemic value
same,CK release,"[5]; 10 μM SUL, coronary effluent, first 15 min of reperfusion",attenuated CK release
same,infarct size,"[5]; SUL alone, 120 min reperfusion",5 % of the area at risk
same,infarct size (TTC),[5]; SUL introduced at the onset of reperfusion,the reduction of infarct size was sustained
same,infarct size (TTC),"[5]; SUL introduced at the onset of reperfusion, listed as sulfaphenazole",reduces infarct size
